Literature values in US8021659B2, “Coenzyme Q10, lactoferrin and angiogenin compositions and uses thereof” (Naidu LP, priority 2006, dated 2011).
Like-named read-outs stand apart in the source and are kept apart here.

Columns and labels:
[1] = human plasma

Compound | elimination half-life (excretion primarily through the biliary tract) | time to peak levels of CoQ-10 in the plasma (following oral administration) [h] | orally administered CoQ-10 excreted in the feces (oral administration) | serum concentrations (regular doses of 30-60 mg/day) [ng/mL] | serum concentrations (therapeutic doses of 100-200 mg/day) [ng/mL] | half-life (turnover rate) [1] [min]
COC1=C(OC)C(=O)C(C/C=C(\C)CC/C=C(\C)CC/C=C(\C)CC/C=C(\C)CC/C=C(\C)CC/C=C(\C)CC/C=C(\C)CC/C=C(\C)CC/C=C(\C)CCC=C(C)C)=C(C)C1=O [CoQ-10, 2,3-dimethoxy-5-methyl-6-decaprenyl-1,4-benzoquinone] | approximately 34 hours | 5 to 10 | more than 60% | 700 to 1000 | 2000 to 3000 | –
AGN: 14-kDa, basic heparin-binding protein and a member of the pancreatic ribonuclease superfamily | – | – | – | – | – | < 5
